Where two headings read alike, the source gives them in different places. Bounds are passed on as bounds.

The EC50 is the concentration at which the effect is half-maximal.

In data set [1] the test system is cellular microtubules in A-10 cells. Kind of data set: Microtubule depolymerization, indirect immunofluorescence. In kind it is cell-based. The following applies: for EC50: A-10 cells, 18 h, read-out: EC50 for MT depolymerization in A-10 cells; for effect on cellular microtubules: in words.
Description: Evaluation of microtubule inhibition was performed using previously described methods.^22 Indirect immunofluorescence was used to evaluate the effects of the compounds on cellular microtubules as described previously.^38 Briefly, A-10 cells were treated for 18 h with vehicle (DMSO) or a compound, and microtubule effects were evaluated microscopically using β-tubulin antibody. The EC50 was calculated from 3 independent experiments and expressed as the mean±SD.
Data set [2] relates to MDA-435 cells. Kind of data set: Antiproliferative SRB assay. In kind it is cell-based. The following applies: read-out: IC50 ± SD in MDA-435 cells.
The subject of data set [3] is HeLa cells. The data set can be described thus: Antiproliferative SRB assay. The following applies: 48 h, read-out: IC50 ± SD in HeLa. In kind it is cell-based. On the technique in general: In SRB staining, fixed cells bind dye roughly in proportion to their protein.
Data set [4] concerns WTβ3 cells (HeLa overexpressing βIII tubulin). The data set can be described thus: Antiproliferative SRB assay. Type of data set: cell-based. The following applies: SRB, 48 h, read-out: IC50 ± SD in WTβ3.
Data set [5] concerns SKOV3 cells. Kind of data set: Antiproliferative SRB assay. The following applies: read-out: IC50 ± SD in SKOV3 cells. In kind it is cell-based.
The subject of data set [6] is purified tubulin. Kind of data set: Inhibition of tubulin assembly. The following applies: read-out: Inhibition tubulin assembly IC50 ± SD. Type of data set: biochemical.
For data set [7], the system named is colchicine site on tubulin. Kind of data set: Inhibition of [3H]colchicine binding. The following applies: 5 μM.
In data set [8] the test system is M6/6 cells (SK-OV-3 expressing Pgp). The data set can be described thus: Antiproliferative SRB assay. The following applies: for IC50: read-out: IC50 ± SD in M6/6 cells, SRB, 48 h.
Data set [9] relates to A431 cancer cells. Kind of data set: A431 cytotoxicity (cell proliferation). In kind it is cell-based, human.
Data set [10] has as its target EGFR (Homo sapiens (Human), UniProt P00533). The data set can be described thus: EGFR kinase inhibition, phosphotyrosine ELISA cytoblot. In kind it is cell-based. The following applies: A431 cells.
Description: (§1) Cells used were tumor cell lines naturally expressing high levels of EGFR (A431), VEGFR-2 (U251), and PDGFR-β (SH-SYSY). […] The reaction was stopped and cells were permeabilized by quickly removing the media from the cells and adding ice-cold Tris-buffered saline (TBS) containing 0.05% Triton X-100, protease inhibitor cocktail and tyrosine phosphatase inhibitor cocktail. The TBS solution was then removed and cells fixed to the plate for 30 min at 60° C. and further incubation in 70% ethanol for an additional 30 min. Cells were further exposed to block (TBS with 1% BSA) for 1 h, washed, and then a horseradish peroxidase (HRP)-conjugated phosphotyrosine (PY) antibody was added overnight.
For data set [11], the target named is VEGFR-2 (Homo sapiens (Human), UniProt P35968). The data set can be described thus: VEGFR-2 kinase inhibition, phosphotyrosine ELISA cytoblot. Type of data set: cell-based. The following applies: U251 cells, phosphotyrosine ELISA.
Sequence of VEGFR-2 (P35968 20-1356): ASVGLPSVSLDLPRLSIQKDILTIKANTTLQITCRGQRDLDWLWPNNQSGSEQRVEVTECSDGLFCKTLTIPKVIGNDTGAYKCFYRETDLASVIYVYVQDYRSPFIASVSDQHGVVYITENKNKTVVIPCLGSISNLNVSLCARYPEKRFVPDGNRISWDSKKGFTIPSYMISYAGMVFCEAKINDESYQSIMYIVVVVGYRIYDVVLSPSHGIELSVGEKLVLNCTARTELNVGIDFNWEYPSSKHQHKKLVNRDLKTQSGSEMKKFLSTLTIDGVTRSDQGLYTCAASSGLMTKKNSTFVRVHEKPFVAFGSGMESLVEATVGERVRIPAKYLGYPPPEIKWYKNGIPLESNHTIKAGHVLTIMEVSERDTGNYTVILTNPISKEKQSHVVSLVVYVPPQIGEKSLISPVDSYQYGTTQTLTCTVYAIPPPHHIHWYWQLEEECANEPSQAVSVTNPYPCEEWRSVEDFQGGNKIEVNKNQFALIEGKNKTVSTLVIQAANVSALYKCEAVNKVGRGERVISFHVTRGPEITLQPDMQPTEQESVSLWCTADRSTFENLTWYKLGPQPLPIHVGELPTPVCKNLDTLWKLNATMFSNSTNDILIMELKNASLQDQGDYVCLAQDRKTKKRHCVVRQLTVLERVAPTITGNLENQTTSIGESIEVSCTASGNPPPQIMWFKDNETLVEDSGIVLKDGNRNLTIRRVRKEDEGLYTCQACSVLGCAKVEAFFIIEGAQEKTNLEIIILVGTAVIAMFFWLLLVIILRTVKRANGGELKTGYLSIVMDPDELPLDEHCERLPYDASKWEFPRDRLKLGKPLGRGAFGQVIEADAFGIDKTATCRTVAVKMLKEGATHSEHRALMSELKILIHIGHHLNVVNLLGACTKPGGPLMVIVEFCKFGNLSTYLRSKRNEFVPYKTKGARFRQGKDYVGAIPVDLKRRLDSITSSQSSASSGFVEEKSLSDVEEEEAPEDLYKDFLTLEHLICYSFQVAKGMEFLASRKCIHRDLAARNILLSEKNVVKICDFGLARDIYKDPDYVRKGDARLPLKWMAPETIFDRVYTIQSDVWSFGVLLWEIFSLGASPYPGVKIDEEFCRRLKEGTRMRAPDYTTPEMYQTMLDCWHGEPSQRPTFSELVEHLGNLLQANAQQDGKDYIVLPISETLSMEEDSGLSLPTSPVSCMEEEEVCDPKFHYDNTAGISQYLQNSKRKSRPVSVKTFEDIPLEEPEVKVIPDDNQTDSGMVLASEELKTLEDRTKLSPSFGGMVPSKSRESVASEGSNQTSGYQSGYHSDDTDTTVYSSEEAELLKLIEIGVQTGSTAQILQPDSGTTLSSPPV
Description: as §1
The target of data set [12] is PDGFR-β (Homo sapiens (Human), UniProt P09619). The data set can be described thus: PDGFR-β kinase inhibition, phosphotyrosine ELISA cytoblot. In kind it is cell-based. The following applies: SH-SY5Y cells, phosphotyrosine ELISA.
Sequence of PDGFR-β (P09619 33-1106): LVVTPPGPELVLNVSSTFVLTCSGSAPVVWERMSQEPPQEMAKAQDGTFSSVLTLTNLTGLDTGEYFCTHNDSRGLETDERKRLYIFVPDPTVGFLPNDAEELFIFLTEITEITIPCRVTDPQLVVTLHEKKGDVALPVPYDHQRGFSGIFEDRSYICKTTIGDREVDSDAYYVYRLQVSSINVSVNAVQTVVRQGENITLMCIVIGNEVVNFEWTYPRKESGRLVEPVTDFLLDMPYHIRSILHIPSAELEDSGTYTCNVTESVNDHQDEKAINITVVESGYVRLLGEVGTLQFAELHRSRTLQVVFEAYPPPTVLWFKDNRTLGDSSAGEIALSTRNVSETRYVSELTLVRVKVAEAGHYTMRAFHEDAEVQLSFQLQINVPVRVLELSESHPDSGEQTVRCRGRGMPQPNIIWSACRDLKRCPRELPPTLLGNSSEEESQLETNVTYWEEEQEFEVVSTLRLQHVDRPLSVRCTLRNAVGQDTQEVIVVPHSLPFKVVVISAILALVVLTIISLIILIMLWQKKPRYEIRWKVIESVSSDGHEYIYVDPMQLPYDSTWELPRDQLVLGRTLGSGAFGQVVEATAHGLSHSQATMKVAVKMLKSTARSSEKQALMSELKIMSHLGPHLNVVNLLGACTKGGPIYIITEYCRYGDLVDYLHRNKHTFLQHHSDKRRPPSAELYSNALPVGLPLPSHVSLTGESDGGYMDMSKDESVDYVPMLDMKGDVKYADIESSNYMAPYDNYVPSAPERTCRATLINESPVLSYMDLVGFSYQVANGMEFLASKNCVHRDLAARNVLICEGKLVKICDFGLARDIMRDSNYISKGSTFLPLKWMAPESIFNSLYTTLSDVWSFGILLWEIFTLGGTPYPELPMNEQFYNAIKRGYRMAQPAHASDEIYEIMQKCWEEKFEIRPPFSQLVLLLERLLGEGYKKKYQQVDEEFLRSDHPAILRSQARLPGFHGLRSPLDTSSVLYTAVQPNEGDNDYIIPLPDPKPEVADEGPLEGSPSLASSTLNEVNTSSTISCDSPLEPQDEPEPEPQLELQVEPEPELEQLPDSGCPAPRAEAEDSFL
Description: as §1
For data set [13], the system named is chicken embryo chorioallantoic membrane. Kind of data set: Chorioallantoic membrane (CAM) assay of angiogenesis. The following applies: Gallus gallus, 48 h, read-out: CAM angiogenesis inhibition.

Sequence of EGFR (P00533 25-1210): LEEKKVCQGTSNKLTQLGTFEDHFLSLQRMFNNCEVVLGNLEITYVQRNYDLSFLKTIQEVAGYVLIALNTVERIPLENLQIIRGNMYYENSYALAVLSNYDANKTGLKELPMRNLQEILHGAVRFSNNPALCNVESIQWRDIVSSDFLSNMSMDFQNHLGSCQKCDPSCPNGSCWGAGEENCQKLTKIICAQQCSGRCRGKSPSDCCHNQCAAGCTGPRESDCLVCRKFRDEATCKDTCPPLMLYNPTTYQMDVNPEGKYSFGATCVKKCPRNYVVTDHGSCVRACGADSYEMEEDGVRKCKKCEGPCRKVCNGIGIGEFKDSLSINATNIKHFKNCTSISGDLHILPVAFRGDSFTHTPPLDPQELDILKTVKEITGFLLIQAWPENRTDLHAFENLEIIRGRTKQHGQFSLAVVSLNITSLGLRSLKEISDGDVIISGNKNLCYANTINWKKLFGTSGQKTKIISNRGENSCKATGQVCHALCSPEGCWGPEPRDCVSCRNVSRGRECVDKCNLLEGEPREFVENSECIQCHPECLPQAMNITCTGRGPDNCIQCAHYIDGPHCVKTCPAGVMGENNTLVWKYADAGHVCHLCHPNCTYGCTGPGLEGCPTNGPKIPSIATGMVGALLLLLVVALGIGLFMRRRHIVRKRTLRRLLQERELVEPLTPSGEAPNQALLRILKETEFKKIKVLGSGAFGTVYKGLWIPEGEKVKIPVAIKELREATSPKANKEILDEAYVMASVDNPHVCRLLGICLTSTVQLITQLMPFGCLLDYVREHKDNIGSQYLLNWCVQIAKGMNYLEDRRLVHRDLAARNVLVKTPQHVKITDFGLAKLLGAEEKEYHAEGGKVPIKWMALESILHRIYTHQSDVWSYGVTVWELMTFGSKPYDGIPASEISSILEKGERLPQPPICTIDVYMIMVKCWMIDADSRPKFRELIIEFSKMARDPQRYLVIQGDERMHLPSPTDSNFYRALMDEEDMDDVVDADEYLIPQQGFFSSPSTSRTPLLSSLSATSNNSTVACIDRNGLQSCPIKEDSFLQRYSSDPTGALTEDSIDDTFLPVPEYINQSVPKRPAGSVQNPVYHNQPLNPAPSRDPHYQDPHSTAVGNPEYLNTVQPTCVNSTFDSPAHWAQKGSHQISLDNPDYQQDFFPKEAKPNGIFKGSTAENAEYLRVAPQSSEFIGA

In the case of `COc1ccc(/C=C\c2cc(OC)c(OC)c(OC)c2)cc1O` [CA-4, combretastatin A-4, reference compound], the EC50 in data set [1] came out at 9.8 nM. For the same molecule, the IC50 in [2] (48 h) was found to be 5 ± 0.3 nM; in data set [3] it was 5.6 ± 0.3 nM; in [4], 5.7 ± 0.4 nM; in data set [5] (48 h), 6.9 ± 0.1 nM; in data set [6], 1000 ± 90 nM; in data set [8], 3 ± 0.3 nM. In addition, the “Inhibition of colchicine binding % inhibition ± SD” value in [7] was 99 ± 0.2%.

For the molecule `COc1ccc(N(C)c2nc(C)nc3oc(C)cc23)cc1` [Compound 1, reference compound], the EC50 in [1] was 103 nM. In addition, the IC50 in data set [6] amounted to 2400 ± 10 nM.

In data set [9] (Homo sapiens, A-431), `COc1ccc(N(C)c2nc(C)nc3oc(C)cc23)c(OC)c1` [Compound 2, N-(2,4-dimethoxyphenyl)-N,2,6-trimethylfuro[2,3-d]pyrimidin-4-amine] returned an IC50 of 17.1 ± 2 nM.

As for `COc1ccc(N(C)c2nc(C)nc3oc(C)cc23)cc1OC` [Compound 3, N-(3,4-dimethoxyphenyl)-N,2,6-trimethylfuro[2,3-d]pyrimidin-4-amine], the IC50 in data set [10] worked out at 90.3 ± 10.2 nM; in data set [11] it was 18.6 ± 3 nM; in data set [12], 66.1 ± 8.1 nM; in data set [9] (Homo sapiens, A-431), 9.7 ± 1.2 nM. Further, the “effect on cellular microtubules” value in data set [1] is reported as “dose-dependent loss of cellular microtubules”.

Regarding `COc1cc(N(C)c2nc(C)nc3oc(C)cc23)cc(OC)c1OC` [Compound 4, N,2,6-trimethyl-N-(3,4,5-trimethoxyphenyl)furo[2,3-d]pyrimidin-4-amine], the IC50 in data set [12] is 166 ± 20.2 nM; in data set [9] (Homo sapiens, A-431) it was greater than 300 nM; in data set [13] it was greater than 300000 nM. For the same molecule, the EC50 in data set [1] (Rattus norvegicus, A10) was greater than 10000 nM.

For `Cc1nc(N(C)c2ccc3c(c2)OCO3)c2cc(C)oc2n1` [Compound 5, N-1,3-benzodioxol-5-yl-N,2,6-trimethylfuro[2,3-d]pyrimidin-4-amine], the IC50 in [10] turned out to be 298 ± 38.1 nM; in [11] it was 19.9 ± 2.1 nM; in data set [12], 50.1 ± 7.8 nM; in data set [9] (Homo sapiens, A-431), 48.9 ± 5.1 nM. In [1] (Rattus norvegicus, A10), the EC50 was greater than 10000 nM.

With `COc1ccc2c(c1)CCN2c1nc(C)nc2oc(C)cc12` [Compound 8, 4-(5-methoxyindolin-1-yl)-2,6-dimethylfuro[2,3-d]pyrimidine], the IC50 in [10] was 103 ± 18.2 nM; in [11] it was 20.9 ± 3.7 nM; in data set [12], 73.2 ± 4.9 nM; in data set [9] (Homo sapiens, A-431) it was 42.2 ± 5 nM. In addition, in data set [1] (Rattus norvegicus, A10), the EC50 was greater than 10000 nM. In data set [1], the “effect on cellular microtubules” value is listed as “no effect on cellular microtubules”.

As to `COc1ccc2c(ccn2-c2nc(C)nc3oc(C)cc23)c1` [Compound 9, 4-(5-methoxy-1H-indol-1-yl)-2,6-dimethylfuro[2,3-d]pyrimidine], the IC50 in [9] (Homo sapiens, A-431) was greater than 300 nM; in data set [13], greater than 300000 nM. Moreover, in [1] (Rattus norvegicus, A10), the EC50 is greater than 10000 nM.

In the case of `CCOc1ccc(N(C)c2nc(C)nc3oc(C)cc23)cc1` [Compound 11, N-(4-ethoxyphenyl)-N,2,6-trimethylfuro[2,3-d]pyrimidin-4-amine], the IC50 in data set [9] (Homo sapiens, A-431) is 11.6 ± 2.1 nM; in data set [13], 50100 ± 8200 nM. The concentration for a half-maximal effect (EC50) in data set [1] (Rattus norvegicus, A10) is greater than 10000 nM.

Regarding `CCCOc1ccc(N(C)c2nc(C)nc3oc(C)cc23)cc1` [Compound 12, N-2,6-trimethyl-N-(4-propoxyphenyl)furo[2,3-d]pyrimidin-4-amine], the IC50 in data set [9] worked out at 92.9 ± 10.1 nM; in data set [8], 30.8 ± 1.7 nM. For the same molecule, the “Rr value (relative resistance)” value in data set [8] (M6/6 (Pgp) vs SKOV3) was determined as 1.3.

As to `CC(=O)O[C@H]1C(=O)[C@@]2(C)[C@H]([C@H](OC(=O)c3ccccc3)[C@]3(O)C[C@H](OC(=O)[C@H](O)[C@@H](NC(=O)c4ccccc4)c4ccccc4)C(C)=C1C3(C)C)[C@]1(OC(C)=O)CO[C@@H]1C[C@@H]2O` [Paclitaxel, reference compound], the IC50 in [2] (MDA435, 48 h) amounted to 3.3 ± 0.3 nM; in data set [4] (Homo sapiens, HeLa) it was 32.9 ± 5.8 nM; in data set [5] (Homo sapiens, SK-OV-3, 48 h), 6.3 ± 0.4 nM.

These data come from patent US10189853B2, “Conformationally restricted 4-substituted-2,6-dimethylfuro[2,3-d]pyrimidines as anti-tumor agents” (DUQUESNE UNIVERSITY OF THE HOLY SPIRIT, priority 2014, dated 2019).
